Laboratory results taken from patent US20150125915A1, “Method for Producing Lactic Acid” (Kao Corporation, priority 2012, published 2015).

Legend:
[1] = system: Rhizopus oryzae JCM14625 strain (=NBRC 5384); assay: Evaluation of ability to produce lactic acid-1 (production rate of lactic acid); format: cell-based; details: 0.5% (w/v) surfactant in PDB medium at spore germination; rate in the absence of the surfactant = 100
Experimental: Specifically, the mycelia of a fungus of the genus Rhizopus were prepared by the method of Production Example 2 using the surfactant and then grown by the method of Production Example 3. 6.0 g of the obtained wet fungus bodies of the genus Rhizopus was inoculated to 40 mL of an inorganic culture medium for lactic acid production evaluation (composition: 8.0% glucose, 0.1% ammonium sulfate, 0.06% potassium dihydrogen phosphate, 0.025% magnesium sulfate heptahydrate, 0.009% zinc sulfate heptahydrate, and 5.0% calcium carbonate; all the concentrations mean % (w/v)) applied to a 200-mL Erlenmeyer flask, and then cultured at 35° C. with stirring at 170 rpm. The supernatant of the culture medium was recovered every 2 hours from 30 minutes after the fungus body inoculation. Glucose and lactic acid were quantified by the procedures described later in Reference Example 1. A relative value of the production rate of lactic acid was determined on the basis of the calculation method described in Reference Example 2.
Glucose and lactic acid were quantified using an HPLC apparatus LaChrom Elite (manufactured by Hitachi High-Technologies Corp.). The analytical column used was a carbohydrate/organic acid analysis column HPX-87H (7.8 mm I.D.×30 cm, manufactured by Bio-Rad Laboratories, Inc.) connected with a guard column Cation H (4.6 mm I.D.×3.0 cm, manufactured by Bio-Rad Laboratories, Inc.). Elution was performed under conditions involving 10 mM sulfuric acid as an eluent, a flow rate of 0.85 mL/min, and a column temperature of 50° C. Glucose and lactic acid were detected using a differential refractive index detector (RI detector) and a UV detector (detection wavelength: 210 nm), respectively. The standard samples used were glucose (distributor code: 049-31165, manufactured by Wako Pure Chemical Industries Ltd.), and lithium L-lactate (product number: L2250, manufactured by Sigma-Aldrich Inc.). Quantification was performed on the basis of concentration calibration curves prepared using these standard samples.
The supernatant sample of each culture medium to be subjected to HPLC analysis was appropriately diluted in advance with 37 mM sulfuric acid and then applied to DISMIC-13cp (0.20 μm cellulose acetate membrane, manufactured by […] Group) or MULTI SCREEN MNHV45 (0.45 μm Durapore membrane, manufactured by EMD Millipore) to remove insoluble matter.
The concentration of lactic acid (unit: g of lactic acid/L of medium) in the supernatant sample of each culture medium was measured according to Reference Example 1 and divided by a time (unit: hr) required for change in lactic acid concentration to calculate the production rate of lactic acid per unit time (unit: g of lactic acid/L/hr). In addition, a relative value to the production rate of lactic acid under control conditions in each Production Example was determined.

[2] = system: Rhizopus oryzae JCM14625 strain (=NBRC 5384); assay: LDH activity evaluation-1: mycelia prepared from spores in surfactant-supplemented PDB medium, LDH activity of fungus body extract; format: cell-based
Experimental: A loopful of a cryopreserved spore suspension sample (−80° C.) of a Rhizopus oryzae JCM14625 strain (=NBRC 5384) obtained from a culture collection Riken BioResource Center (BRC) was inoculated to a PDA medium (Difco Potato Dextrose Agar, manufactured by Becton, Dickinson and Company) and then statically cultured at 30° C. for from 7 to 10 days. After visual confirmation of hyphal growth and blackening at the ends of hyphae associated with sporulation, from 30 to 40 mL of saline was added thereto. Spores, together with hyphae, were collected into a 50-mL centrifugal tube with a lid (manufactured by Greiner bio-one) using a platinum loop and then vigorously mixed in the tube. The spore suspension thus mixed was filtered through 3GP100 cylindrical funnel-shaped glass filter (manufactured by Shibata Scientific Technology Ltd.). The resulting filtrate was used as a spore solution. The number of spores in the spore solution was measured using a hemocytometer (D=1/50 mm· 1/400 mm^2) after appropriate dilution with saline.
80 mL of a PDB medium non-supplemented or supplemented with 0.5% (w/v) (final concentration) of each surfactant described below was applied to a 200-mL baffled Erlenmeyer flask (manufactured by Asahi Glass Co., Ltd.). The Rhizopus oryzae spore suspension prepared in Production Example 1 was inoculated thereto at a dose of 1×10^3 spores/mL of the medium and then cultured at 27° C. for 3 days with stirring at 170 rpm. Since mycelia would remain on the filter, the cultures were filtered through a stainless sieve of 250 μm in mesh size (manufactured by AS ONE Corp.) sterilized in advance to recover fungus bodies onto the filter.
From3.0 to 4.0 g (wet weight) of the recovered fungus bodies was inoculated to 100 mL of an inorganic culture medium (composition: 10% glucose, 0.1% ammonium sulfate, 0.06% potassium dihydrogen phosphate, 0.025% magnesium sulfate heptahydrate, 0.009% zinc sulfate heptahydrate, and 5.0% calcium carbonate; all the concentrations mean % (w/v)) applied to a 500-mL Erlenmeyer flask, and then cultured at 27° C. for approximately 40 hours with stirring at 220 rpm. Subsequently, the cultures thus obtained by culture in the inorganic culture medium were filtered using a stainless screen filter holder (manufactured by EMD Millipore) sterilized in advance to recover fungus bodies onto the filter. On this filter holder, the fungus bodies were further washed with 100 mL of saline. The saline used in washing was removed by suction filtration. The obtained fungus bodies were used in the following LDH activity evaluation and evaluation of the ability to fermentatively produce lactic acid.
6.0 g of the wet fungus bodies of the genus Rhizopus obtained in Production Example 3 was inoculated to 40 mL of an inorganic culture medium for lactic acid production evaluation (composition: 8.0% glucose, 0.1% ammonium sulfate, 0.06% potassium dihydrogen phosphate, 0.025% magnesium sulfate heptahydrate, 0.009% zinc sulfate heptahydrate, and 5.0% calcium carbonate; all the concentrations mean % (w/v)) applied to a 200-mL Erlenmeyer flask, and then cultured at 35° C. with stirring at 170 rpm. After 4.5-hour culture of the fungus bodies of the genus Rhizopus with stirring, the fungus bodies were filtered using a stainless screen filter holder (manufactured by EMD Millipore) sterilized in advance to recover fungus bodies onto the filter. On this filter holder, the fungus bodies were further washed with 100 mL of saline. The saline used in washing was removed by suction filtration. 0.3 g of the obtained fungus bodies was recovered into a 3-mL disruption tube (manufactured by Yasui Kikai Corp.). Metal cone for 3 mL (manufactured by Yasui Kikai Corp.) was added to the tube, which was then capped and then frozen in liquid nitrogen. The frozen 3-mL disruption tube was applied to Multi-Beads Shocker (manufactured by Yasui Kikai Corp.). The fungus bodies were disrupted at 1700 rpm for 10 seconds.

Substance: Sorbitan monolaurate
- Production rate of lactic acid (relative value) [1]: 152 relative value
- LDH activity compared with control fungus bodies (in words) ([2]; 0.5% (w/v) surfactant at spore germination, versus medium non-supplemented with the surfactant): higher LDH activity
- LDH activity (relative value) ([2]; 0.5% (w/v) surfactant in PDB medium at spore germination, LDH activity in the absence of the surfactant = 100): 267 relative value
